Test results taken from patent publication US12643867B2, “Compositions and uses thereof” (University of Virginia Patent Foundation, priority 2017, dated 2026).

Key:
Assay type in all cases: binding
[1] = target: T1, FER (Homo sapiens, UniProt P16591); experiment: ATP acyl phosphate chemical proteomics in lung cancer cell proteomes; conditions: 100 μM; A549 and H82 proteomes
T1 construct: measure selectivity of compounds against native kinases detected in lung cancer proteomes; endogenous in cells; host or cells: A549 and H82 lung cancer cell proteomes
Experimental: (§1) LC-MS analysis of SILAC samples using ATP acyl phosphates. Quantitative chemoproteomics was performed as previously described (Franks et al., 2017; McCloud et al., 2018).
Computational Methods. Data for A549 and H82 cell lines were searched with IP2 and manually validated using the methods previously described (Franks et al., 2017). Data for Desthiobiotin-tagged ATP acyl-phosphate probes and ATP competitive peptides were compared and clustered. Ritanserin and ketanserin inhibition profiles were compared using SILAC ratios and normalized to DMSO.
Based on previous chemical proteomics (Franks, 2017), it was hypothesized that ritanserin is functioning as a kinase inhibitor to mediate cytotoxicity in the lung cancer cell models. […] For these studies, NSCLC and SCLC cells were cultured in isotopically light and heavy amino acids to enable quantitative chemical proteomics (Chang. 2015) by stable isotope labeling with amino acids in cell culture (SILAC, FIG. 17A). […] After probe labeling, light and heavy proteomes were combined, digested with trypsin protease, and desthiobiotin-modified peptides enriched by avidin affinity chromatography and analyzed by LC-MS/MS to identify and quantify isotopically tagged active-site peptides from native kinases as previously described(Franks, 2017) (FIG. 17A).

[2] = target: T2, ARAF (Homo sapiens, UniProt P10398); experiment: ATP acyl phosphate chemical proteomics in lung cancer cell proteomes (targeted PRM); conditions: H82 proteomes
T2 construct: measure selectivity of compounds against native kinases detected in lung cancer proteomes; endogenous in cells; host or cells: H82 (and A549) cell proteomes
Experimental: as §1
To further confirm that ritanserin is a CRAF inhibitor, a targeted parallel reaction monitoring method (PRM) was developed to evaluate compound activity against CRAF and other members of the RAF family (ARAF and BRAF). Targeted PRM was needed because of the low abundance of CRAF compared with ARAF and BRAF). […] Ritanserin activity was also measured against RAF kinases in A549 proteomes using the targeted LC-MS method. […] The data further support previous findings that this RAF member is enriched in SCLC cells (REF).

[3] = target: T3, hDGKa C1 domain cysteines (Homo sapiens, UniProt P23743); experiment: JWB003 labeling competition in vitro
T3 construct: expressed in transfected cells; host or cells: HEK293T
Experimental: • 1. HEK293T cells were harvested in cold PBS. • a. Cells were transferred to Eppendorf tube. • 2. Cells were lysed via tip sonicator. • 3. Cells were fractionated into membrane and soluble fraction. • a. 100,000×G for 45 minutes at 4 degree. • b. Supernatant was separated from cell pellet. • 4. Dilute proteomes to 1 mg/mL in PBS and aliquot appropriate reaction volume (49 μL for probe only; 48 μL for competition+probe) • 5. Cells were treated with 50× inhibitor. • a. Incubated for 1Hr at 37 degree. • 6. Cells were treated with 50× Probe (JWB003). • a. Incubated for 1Hr at 37 degree. • 7. Add 6 μL of master mix to each alkyne probe-labeled sample. • a. 1 μL of 1.25 mM Rh-N3 • b. 1 μL of fresh 50 mM TCEP • c. 3 μL of 1.7 mM TBTA stock • d. 1 μL of 50 mM CuSO4 • 8. Vortex samples. • 9. Incubate at room temperature for 1 hr • 10. Quench with 17 μL of 4×SDS-PAGE loading buffer+βME and vortex tubes. • 11. Analyze 30 μL samples by SDS-PAGE immediately. [B] Labeling HEK293T Cells to Determine Target Proteins of JWB003 in Live Cells (In Situ) • 1. Complete media was removed from HEK293T cells and replaced with serum free media containing JWB003 at the appropriate final concentration • a. Cells were placed in incubator for appropriate time at 37 degree 5% CO2 • 2. Cells were washed • a. 2× warm PBS • b. 2× cold PBS • c. Harvest cells in cold PBS • 3. Cells were transferred to Eppendorf tube • 4. Cells were lysed via tip sonicator • 5. Cells were fractionated into membrane and soluble fraction • a. 100,000×G for 45 minutes at 4 degrees • b. Supernatant was separated from cell pellet. • 6. Dilute proteomes to 1 mg/mL and aliquot appropriate reaction volume (50 μL) • 7. Add 6 μL of master mix to each alkyne probe-labeled sample. • a. 1 μL of 1.25 mM Rh-N3 • b. 1 μL of fresh 50 mM TCEP • c. 3 μL of 1.7 mM TBTA stock • d. 1 μL of 50 mM CuSO4 • 8. Vortex samples. • 9. Incubate at room temperature for 1 hr. • 10. Quench with 17 μL of 4×SDS-PAGE loading buffer+βME and vortex tubes. • 11. Analyze 30 μL samples by SDS-PAGE immediately. [C] […]

T2 sequence (P10398 whole entry): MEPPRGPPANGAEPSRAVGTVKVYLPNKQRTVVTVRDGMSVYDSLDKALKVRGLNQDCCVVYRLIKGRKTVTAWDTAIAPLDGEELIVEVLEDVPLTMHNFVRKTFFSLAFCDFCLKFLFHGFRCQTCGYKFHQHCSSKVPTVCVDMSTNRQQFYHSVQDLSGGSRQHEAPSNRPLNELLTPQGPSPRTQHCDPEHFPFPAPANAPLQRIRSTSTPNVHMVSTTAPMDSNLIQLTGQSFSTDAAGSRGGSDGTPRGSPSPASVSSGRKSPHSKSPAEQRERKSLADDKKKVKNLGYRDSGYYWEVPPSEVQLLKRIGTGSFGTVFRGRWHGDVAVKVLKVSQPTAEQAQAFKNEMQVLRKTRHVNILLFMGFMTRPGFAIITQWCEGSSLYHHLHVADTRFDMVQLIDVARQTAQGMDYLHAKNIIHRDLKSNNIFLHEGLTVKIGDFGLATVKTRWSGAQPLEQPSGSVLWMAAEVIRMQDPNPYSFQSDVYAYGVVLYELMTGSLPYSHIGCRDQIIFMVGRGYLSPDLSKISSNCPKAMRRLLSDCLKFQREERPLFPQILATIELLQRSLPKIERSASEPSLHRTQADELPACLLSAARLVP
T3 sequence (P23743 whole entry, the tested form may be a part): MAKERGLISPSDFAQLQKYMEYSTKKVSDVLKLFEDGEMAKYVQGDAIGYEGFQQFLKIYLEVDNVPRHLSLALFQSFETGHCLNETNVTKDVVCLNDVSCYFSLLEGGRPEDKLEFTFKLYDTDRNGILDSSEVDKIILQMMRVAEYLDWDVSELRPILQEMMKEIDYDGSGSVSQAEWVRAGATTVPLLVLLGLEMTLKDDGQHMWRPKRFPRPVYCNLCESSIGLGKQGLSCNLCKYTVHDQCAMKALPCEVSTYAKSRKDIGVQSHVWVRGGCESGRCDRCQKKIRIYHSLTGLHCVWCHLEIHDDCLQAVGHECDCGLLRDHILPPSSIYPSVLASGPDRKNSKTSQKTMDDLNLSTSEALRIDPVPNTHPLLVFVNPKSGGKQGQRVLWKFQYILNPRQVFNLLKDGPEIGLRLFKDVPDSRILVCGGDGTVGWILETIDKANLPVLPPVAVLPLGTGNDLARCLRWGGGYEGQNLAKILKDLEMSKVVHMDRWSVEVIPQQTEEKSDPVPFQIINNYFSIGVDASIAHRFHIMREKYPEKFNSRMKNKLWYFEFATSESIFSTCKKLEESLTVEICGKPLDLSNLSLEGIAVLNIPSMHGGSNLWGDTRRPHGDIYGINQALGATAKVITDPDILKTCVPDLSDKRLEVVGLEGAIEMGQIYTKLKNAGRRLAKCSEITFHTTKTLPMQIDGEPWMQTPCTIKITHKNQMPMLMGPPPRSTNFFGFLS
T1 sequence (P16591 whole entry): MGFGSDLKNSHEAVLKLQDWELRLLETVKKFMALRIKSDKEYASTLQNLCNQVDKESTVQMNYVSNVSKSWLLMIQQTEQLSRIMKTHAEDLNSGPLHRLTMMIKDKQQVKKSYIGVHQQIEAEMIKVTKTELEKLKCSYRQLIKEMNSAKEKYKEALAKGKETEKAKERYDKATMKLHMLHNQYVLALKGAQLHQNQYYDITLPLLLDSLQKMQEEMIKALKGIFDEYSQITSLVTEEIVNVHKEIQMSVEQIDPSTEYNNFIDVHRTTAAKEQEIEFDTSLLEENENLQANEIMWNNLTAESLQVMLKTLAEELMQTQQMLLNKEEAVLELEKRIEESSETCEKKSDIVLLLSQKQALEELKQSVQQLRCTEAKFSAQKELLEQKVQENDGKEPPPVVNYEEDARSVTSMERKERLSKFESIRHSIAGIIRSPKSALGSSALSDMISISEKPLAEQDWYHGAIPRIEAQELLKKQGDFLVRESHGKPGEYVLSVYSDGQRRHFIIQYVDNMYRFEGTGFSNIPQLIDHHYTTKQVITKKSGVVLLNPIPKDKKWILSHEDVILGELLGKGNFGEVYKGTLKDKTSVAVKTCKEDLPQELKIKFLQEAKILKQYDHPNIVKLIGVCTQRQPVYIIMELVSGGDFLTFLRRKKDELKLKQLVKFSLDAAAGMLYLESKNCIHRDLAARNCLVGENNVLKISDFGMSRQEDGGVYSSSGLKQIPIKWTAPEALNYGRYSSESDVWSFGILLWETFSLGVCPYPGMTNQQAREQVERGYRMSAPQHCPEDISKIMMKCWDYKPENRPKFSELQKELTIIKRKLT

Q: How did the “kinase target by SILAC ratio criterion” value [1] turn out when `Cc1nc2sccn2c(=O)c1CCN1CCC(=C(c2ccc(F)cc2)c2ccc(F)cc2)CC1` [Ritanserin] was run?
A: most potent targets

Q: And the “activity by targeted PRM” value [2]?
A: negligible activity

Q: And the “inhibition of JWB003 probe labeling of hDGKa” value [3]?
A: Probe labeling is inhibited
